These molecules were tested on Mus musculus (assay: Toxicity in mouse allografted with mouse L1210 cells assessed as mortality at 75 mg/kg administered on day 1 measured on day 2). Settings: in vivo.
Type: organism-based
Design: dose 75 mg/kg

SMILES | Activity
Nc1nc(N)c2cc(CN(C=O)c3ccc(C(=O)N[C@@H](CCC(=O)O)C(=O)O)cc3)ccc2n1 | Toxic

These molecules were tested on L1210 (assay: Antitumor activity against mouse L1210 cells allografted in mouse assessed as increase in survival at 100 mg/kg administered on day 1 to 5 relative to control). Settings: L1210, 24 h.
Type: functional

SMILES | survival at 100 mg/kg [%]
Nc1nc(O)c2cc(CN(C=O)c3ccc(C(=O)N[C@@H](CCC(=O)O)C(=O)O)cc3)ccc2n1 | 25

What follows are molecules tested against T1, Dihydrofolate reductase (Enterococcus faecium, UniProt P00380) (assay: Inhibition of Streptococcus faecium dihydrofolate reductase using dihydrofolate as substrate). Settings: read-out: I50.
T1 sequence (P00380 whole entry): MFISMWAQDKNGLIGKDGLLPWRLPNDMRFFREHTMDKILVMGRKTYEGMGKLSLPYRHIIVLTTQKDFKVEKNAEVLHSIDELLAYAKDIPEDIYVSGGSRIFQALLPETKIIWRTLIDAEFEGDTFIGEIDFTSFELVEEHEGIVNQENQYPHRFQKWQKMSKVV

SMILES | IC50 [nM]
CCOC(=O)CC[C@H](NC(=O)c1ccc(NCc2ccc3nc(N)nc(N)c3c2C)cc1)C(=O)OCC | 2.4
Cc1c(CNc2ccc(C(=O)N[C@@H](CCC(=O)O)C(=O)O)cc2)ccc2nc(N)nc(N)c12 | 2.2
CCOC(=O)CC[C@H](NC(=O)c1ccc(NCc2ccc3nc(N)nc(N)c3c2Cl)cc1)C(=O)OCC | 1.7
Nc1nc(N)c2c(Cl)c(CNc3ccc(C(=O)N[C@@H](CCC(=O)O)C(=O)O)cc3)ccc2n1 | 0.7
CCOC(=O)CC[C@H](NC(=O)c1ccc(CNc2ccc3nc(N)nc(N)c3c2)cc1)C(=O)OCC | 32
CCOC(=O)CC[C@H](NC(=O)c1ccc(CNc2ccc3nc(N)nc(N)c3c2C)cc1)C(=O)OCC | 3.9
Cc1c(NCc2ccc(C(=O)N[C@@H](CCC(=O)O)C(=O)O)cc2)ccc2nc(N)nc(N)c12 | 8.3
CCOC(=O)CC[C@H](NC(=O)c1ccc(CNc2ccc3nc(N)nc(O)c3c2)cc1)C(=O)OCC | 24000
Nc1nc(O)c2cc(NCc3ccc(C(=O)N[C@@H](CCC(=O)O)C(=O)O)cc3)ccc2n1 | 22000
CCOC(=O)CC[C@H](NC(=O)c1ccc(CNc2ccc3nc(N)nc(O)c3c2C)cc1)C(=O)OCC | 115000
Cc1c(NCc2ccc(C(=O)N[C@@H](CCC(=O)O)C(=O)O)cc2)ccc2nc(N)nc(O)c12 | 5900
Nc1nc(N)c2cc(NCc3ccc(C(=O)N[C@@H](CCC(=O)O)C(=O)O)cc3)ccc2n1 | 32
Cc1c(CNc2ccc(C(=O)N[C@@H](CC(=O)O)C(=O)O)cc2)ccc2ncnc(N)c12 [METHASQUIN] | 2.5

The molecules below were run on L1210 (assay: Antitumor activity against mouse L1210 cells allografted in mouse assessed as increase in survival at 100 mg/kg administered on day 1 to 3 relative to control). Settings: L1210, 24 h.
Type: functional

SMILES | survival at 100 mg/kg [%]
Nc1nc(O)c2cc(CN(C=O)c3ccc(C(=O)N[C@@H](CCC(=O)O)C(=O)O)cc3)ccc2n1 | 19

The molecules below were run on L1210 (assay: Antitumor activity against mouse L1210 cells allografted in mouse assessed as increase in survival at 75 mg/kg administered on day 1 relative to control). Settings: L1210, 24 h.
Type: functional

SMILES | survival at 75 mg/kg [%]
Nc1nc(N)c2cc(CN(C=O)c3ccc(C(=O)N[C@@H](CCC(=O)O)C(=O)O)cc3)ccc2n1 | 0

Each molecule was assayed on L1210 (assay: Antitumor activity against mouse L1210 cells allografted in mouse assessed as increase in survival at 200 mg/kg administered on day 1 to 3 relative to control). Settings: L1210, 24 h.
Type: functional

SMILES | survival at 200 mg/kg [%]
Nc1nc(O)c2cc(CN(C=O)c3ccc(C(=O)N[C@@H](CCC(=O)O)C(=O)O)cc3)ccc2n1 | 15

From ChEMBL document CHEMBL3244206, “Quinazolines as inhibitors of dihydrofolate reductase. 4. Classical analogues of folic and isofolic acids” (J Med Chem, 1977)
